Laboratory results taken from US20230136297A1, “Methods Of Treating Fabry Disease In Patients Having A Mutation In The GLA Gene” (Amicus Therapeutics, Inc., priority 2020, published 2023).
Numbering of substitutions follows the chain as printed.

Tests used:
Experiment in all cases: α-Gal A activity in lysates of transfected HEK-293 cells ± migalastat (HEK assay)
Format in all cases: cell-based
[1] = molecular target: T1, α-Gal A mutant form I303T (Homo sapiens, UniProt P06280, I303T)
T1 construct: expressed in transfected cells; host or cells: HEK-293
T1 sequence (P06280 32-429 I303T): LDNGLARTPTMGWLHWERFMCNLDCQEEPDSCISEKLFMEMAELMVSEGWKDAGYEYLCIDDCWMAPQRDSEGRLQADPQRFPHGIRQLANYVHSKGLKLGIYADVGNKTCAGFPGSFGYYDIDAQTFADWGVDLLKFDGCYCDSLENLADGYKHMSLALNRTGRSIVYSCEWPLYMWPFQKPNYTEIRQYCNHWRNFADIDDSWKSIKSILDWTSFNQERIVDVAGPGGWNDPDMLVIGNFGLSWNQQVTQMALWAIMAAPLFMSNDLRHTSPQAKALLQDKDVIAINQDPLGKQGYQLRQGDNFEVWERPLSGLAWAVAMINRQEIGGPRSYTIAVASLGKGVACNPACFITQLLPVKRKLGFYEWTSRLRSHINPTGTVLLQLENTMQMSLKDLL
Source text: (§1) Such mutations or variants are also referred to herein as “HEK assay amenable” mutations or variants.
(§2) The α-Gal A activity is expressed as the nmoles of free 4-MU released per milligram of protein per hour (nmol/mg/hr).

[2] = molecular target: T2, α-Gal A mutant form D182G (Homo sapiens, UniProt P06280, D182G)
T2 construct: expressed in transfected cells; host or cells: HEK-293
T2 sequence (P06280 32-429 D182G): T1 sequence (P06280 32-429 I303T) with D151G, T272I
Source text: as §1, §2

[3] = molecular target: T3, α-Gal A mutant form A257T (Homo sapiens, UniProt P06280, A257T)
T3 construct: expressed in transfected cells; host or cells: HEK-293
T3 sequence (P06280 32-429 A257T): T1 sequence (P06280 32-429 I303T) with A226T, T272I
Source text: as §1, §2

[4] = molecular target: T4, α-Gal A mutant form M290V (Homo sapiens, UniProt P06280, M290V)
T4 construct: expressed in transfected cells; host or cells: HEK-293
T4 sequence (P06280 32-429 M290V): T1 sequence (P06280 32-429 I303T) with M259V, T272I
Source text: as §1, §2

[5] = molecular target: T5, α-Gal A mutant form Y152N (Homo sapiens, UniProt P06280, Y152N)
T5 construct: expressed in transfected cells; host or cells: HEK-293
T5 sequence (P06280 32-429 Y152N): T1 sequence (P06280 32-429 I303T) with Y121N, T272I
Source text: as §1, §2

[6] = 10 μM migalastat minus baseline
[7] = HEK-293 lysates, 10 μM migalastat 5 days, mean ± SEM

With OC[C@H]1NC[C@H](O)[C@@H](O)[C@H]1O [migalastat, (2R,3S,4R,5S)-2-(hydroxymethyl) piperdine-3,4,5-triol] the “Absolute increase (% WT)” value ([1]; 10 μM migalastat minus baseline, baseline BLD) was 7.3 % WT, the “10 μM migalastat α-Gal A activity (% WT)” value ([1]; HEK-293 lysates, 10 μM migalastat 5 days, mean ± SEM, baseline BLD) was 7.3 ± 1.4 % WT and the “10 μM migalastat α-Gal A activity” value ([1]; HEK-293 lysates, 10 μM migalastat 5 days, mean ± SEM, baseline BLD (<142 nmol/mg/hr)) was 2809 ± 520 nmol/mg/h. For the same molecule, the “Absolute increase (% WT)” value [2, 6] was 45.6 % WT, the Relative increase ([2]; 10 μM migalastat ÷ baseline) was 1.56 and the “10 μM migalastat α-Gal A activity” value [2, 7] was 43772 ± 4156 nmol/mg/h. For the same molecule, the “10 μM migalastat α-Gal A activity (% WT)” value [2, 7] was 129.6 ± 9.7 % WT, the “Absolute increase (% WT)” value [3, 6] was 40.6 % WT and the Relative increase ([3]; 10 μM migalastat ÷ baseline) was 2.56. For the same molecule, the “10 μM migalastat α-Gal A activity” value [3, 7] was 18990 ± 1196 nmol/mg/h, the “10 μM migalastat α-Gal A activity (% WT)” value [3, 7] was 66.2 ± 4.1 % WT and the “Absolute increase (% WT)” value [4, 6] was 61.5 % WT. The Relative increase ([4]; 10 μM migalastat ÷ baseline) was 1.94, the “10 μM migalastat α-Gal A activity” value [4, 7] was 45804 ± 2927 nmol/mg/h and the “10 μM migalastat α-Gal A activity (% WT)” value [4, 7] was 128.1 ± 8.2 % WT. The “Absolute increase (% WT)” value [5, 6] was 25.9 % WT, the Relative increase ([5]; 10 μM migalastat ÷ baseline) was 1.97 and the “10 μM migalastat α-Gal A activity” value [5, 7] was 18554 ± 1297 nmol/mg/h. The “10 μM migalastat α-Gal A activity (% WT)” value [5, 7] was 51.6 ± 2.2 % WT.
